Experimental data: patent US20200199190A1, “Calcitonin Mimetics for Treating Diseases and Disorders” (KeyBioscience AG, priority 2017, published 2020)
Entries after “also recorded” stand apart in the source; their conditions may differ. Ends that are not written are not given here.

What was measured:
Amylin Receptor (AMY-R) = molecular target: T1, Amylin Receptor (AMY-R) (Homo sapiens, UniProt P30988); assay: PathHunter β-arrestin recruitment dose response, amylin receptor activation (CHO-K1 CALCR RAMP3 cells); assay type: cell-based; details: FIGS. 2A-2B
T1 construct: host or cells: CHO-K1
T1 sequence (P30988 25-474): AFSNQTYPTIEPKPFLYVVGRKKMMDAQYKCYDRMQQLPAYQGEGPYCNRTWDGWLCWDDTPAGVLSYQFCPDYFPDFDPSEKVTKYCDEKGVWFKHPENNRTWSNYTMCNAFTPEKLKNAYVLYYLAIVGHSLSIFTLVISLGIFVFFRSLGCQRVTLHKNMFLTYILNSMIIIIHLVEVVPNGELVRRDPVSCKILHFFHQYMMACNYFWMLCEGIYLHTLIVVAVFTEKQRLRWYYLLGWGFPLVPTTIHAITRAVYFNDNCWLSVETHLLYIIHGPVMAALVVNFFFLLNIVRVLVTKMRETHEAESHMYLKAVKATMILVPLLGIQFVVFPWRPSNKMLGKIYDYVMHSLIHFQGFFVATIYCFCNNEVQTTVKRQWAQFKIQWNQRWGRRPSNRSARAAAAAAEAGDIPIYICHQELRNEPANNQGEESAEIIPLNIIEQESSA
T1 sequence (O60896 24-148 partner): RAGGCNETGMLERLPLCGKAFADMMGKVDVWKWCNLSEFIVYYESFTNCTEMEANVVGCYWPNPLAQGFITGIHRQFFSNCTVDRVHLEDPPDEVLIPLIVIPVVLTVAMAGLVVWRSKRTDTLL
Protocol: FIGS. 2A-2B: β-arrestin recruitment dose response by KBP-046-KBP-054 (FIG. 2A) and KBP-058-KBP-063 (FIG. 2B) as a function of amylin receptor activation. Dose range is 1 μM to 15 μM and data is shown as fold of vehicle. Screening was conducted in CHO-K1 CALCR RAMP3 Pathhunter cells from DiscoveRx.
(§1) In the following examples, the following materials and methods were employed. The following cell lines expressing the calcitonin, amylin and CGRP receptors were purchased and cultured according to the manufacturer's instructions. • 1. Calcitonin Receptor (CTR): U2OS-CALCR from DiscoveRx (Cat. No.: 93-0566C3). • 2. Amylin Receptor (AMY-R): CHO-K1 CALCR+RAMP3 from DiscoveRx (Cat. No.: 93-0268C2). In independent bioassays, CTR and AMY-R cells were treated with for the indicated timepoints with increasing doses of KBPs identified in Tables 1A and 1B (1000, 250, 62.5, 15.6, 3.9, 1.0, 0.24, 0.06, 0.02 nM and vehicle).
(§2) PathHunter β-Arrestin GPCR assays are whole cell, functional assays that directly measure the ability of a ligand to activate a GPCR by detecting the interaction of β-Arrestin with the activated GPCR. Because β-arrestin recruitment is independent of G-protein signaling, these assays offer a powerful and universal screening and profiling platform that can be used for virtually any Gi-, Gs, or Gq-coupled receptor.
(§3) In this system, the GPCR is fused in frame with the small enzyme fragment ProLink™ and co-expressed in cells stably expressing a fusion protein of β-Arrestin and the larger, N-terminal deletion mutant of β-gal (called enzyme acceptor or EA). Activation of the GPCR stimulates binding of β-Arrestin to the ProLink-tagged GPCR and forces complementation of the two enzyme fragments, resulting in the formation of an active β-gal enzyme. This interaction leads to an increase in enzyme activity that can be measured using chemiluminescent PathHunter® Detection Reagents.
(§4) The assay was performed in white 384 well plates (Greiner Bio-One, 784080). Cells were seeded 2500 cells per well in 10 μL cell-type specific medium the day prior to the experiment. To quantify the GPCR-mediated β-arrestin recruitment the Pathhunter™ Detection Kit (93-0001, DiscoverX) was used and assay performed accordingly to the manufacturer's instructions. Furthermore, data from the Pathhunter™ β-arrestin recruitment assay was normalized to an internal standard to improve the distinction between top KBP performers and non-performers.

[1] = molecular target: T2, Calcitonin Receptor (CTR) (Homo sapiens, UniProt P30988); assay: Prolonged β-arrestin recruitment, calcitonin receptor activation over time (U2OS CALCR cells); assay type: cell-based; details: single dose of 100 nM at t=0, read up to 72 hours, FIGS. 3A-3B
T2 construct: host or cells: U2OS
T2 sequence (P30988 25-474): T1 sequence (P30988 25-474)
Protocol: FIGS. 3A-3B: Prolonged β-arrestin recruitment by KBP-046-KBP-054 (FIG. 3A) and KBP-058-KBP-063 (FIG. 3B) and human calcitonin as a function of calcitonin receptor activation. Single dose of 100 nM at t=0 and after 3, 6, 24, and 72 hours after initial treatment, β-arrestin recruitment was assessed to investigate each ligands protracted potential. Data is shown as fold of vehicle. Screening was conducted in U2OS CALCR Pathhunter cells from DiscoveRx.
as §1, §2, §3, §4
Results are seen in FIGS. 1A-1B, 2A-2B and 3A-3B. […] This was done using the calcitonin receptor (CTR): U2OS-CALCR from DiscoveRx (Cat. No.: 93-0566C3) cell line, and as opposed to the classical three hour output, β-arrestin accumulation was conducted over 24, 48 and 72 hour and then analyzed.

Sprague Dawley Rats = assay: Food intake in healthy Sprague Dawley rats after single s.c. dose; assay type: in vivo, rat; details: single s.c. dose 2.5 μg/kg; for Food Intake ΔFOOD Sustained Attenuation Hours: SD rats fasted overnight, food intake monitored 0-4 h and 4-24 h; for reduction in food intake within the 4 hour interval / time to which the reduction in food intake was maintained (sustained effect) / size of reduction in food intake compared with the other tested peptides: SD rats; for reduction in food intake within the 4 hour interval: 0-4 hours; for time to which the reduction in food intake was maintained (sustained effect): intervals 0-4 and 4-24 hours; for size of reduction in food intake compared with the other tested peptides: FIG. 4A (KBP-046 to -054) and FIG. 4B (KBP-058 to -063)
Protocol: FIGS. 4A-43: Protracted attenuation of food intake in SD rats by KBP-046-KBP-054 (FIG. 4A) and KBP-058-KBP-063 (FIG. 4B). After single s.c dose of 2.5 μg/kg of KBP, food intake was monitored in intervals of 0-4 h and 4-24 h to assess the protracted action of individual KBPs. Individual rats were single caged, n=4 in each group.
Rats were single caged four days prior to individual tests. They were randomized by weight into seven groups (Vehicle (0.9% NaCl), KBPs (doses: 2.5 μg/kg). They were fasted overnight and then treated with a single dose of peptide or vehicle in the morning using subcutaneous administration. The food intake was monitored in the following intervals (0-4 hours and 4-24 hours).

| amylin receptor activation (β-arrestin recruitment, fold of vehicle) (Amylin Receptor (AMY-R)) | protracted calcitonin receptor activation (prolonged β-arrestin recruitment, fold of vehicle) [1] | Substance | Food Intake ΔFOOD Sustained Attenuation Hours (Sprague Dawley Rats) [h] | reduction in food intake within the 4 hour interval (Sprague Dawley Rats) | time to which the reduction in food intake was maintained (sustained effect) (Sprague Dawley Rats) [h] | size of reduction in food intake compared with the other tested peptides (Sprague Dawley Rats) |
| --- | --- | --- | --- | --- | --- | --- |
| potent amylin agonists | superior | CGNLSTCMLGRLSQDLNKFHTFPKTDVGANAP (not fully specified; ends and bridges not checked) [KBP-047, Calcitonin mimetic peptide] | 24 | reduction in food intake | 24 | largest reduction; also recorded: far greater reduction in food intake |
|  |  | KBP-051: Calcitonin mimetic peptide, Table 1 residues CSNLSTCMLGRLSQDLHRLQTYPKTAIGVGAP (not fully specified; ends and bridges not checked) | 4 |  |  |  |
|  |  | KBP-061: Calcitonin mimetic peptide, Table 1 residues CGNLSTCMLGTYTQDFHRLQTFPQTDVGANAP (printed identical to KBP-060) (not fully specified; ends and bridges not checked) | 4 |  |  |  |
|  |  | KBP-050: Calcitonin mimetic peptide, Table 1 residues CGNLSTCMLGRLSQDLHRLQTYPKTAIGVGAP (not fully specified; ends and bridges not checked) | 4 |  |  |  |
|  |  | KBP-046: Calcitonin mimetic peptide, Table 1 residues CGNLSTCMLGTYTQDFHRLQTYPKTDVGANAP (not fully specified; ends and bridges not checked) | 4 |  |  |  |
| potent amylin agonists | superior | CGNLSTCMLGRLTQDLHKLQTFPKTDVGANAP (not fully specified; ends and bridges not checked) [KBP-053, Calcitonin mimetic peptide] | 24 | reduction in food intake | 24 | far greater reduction in food intake |
|  |  | KBP-052: Calcitonin mimetic peptide, Table 1 residues CSNLSTCMLGTYTQDFHRLQTYPKTAIGVGAP (not fully specified; ends and bridges not checked) | 4 |  |  |  |
|  |  | KBP-060: Calcitonin mimetic peptide, Table 1 residues CGNLSTCMLGTYTQDFHRLQTFPQTDVGANAP | 4 |  |  |  |
|  |  | KBP-048: Calcitonin mimetic peptide, Table 1 residues CGNLSTCMLGTYTQDFNKFNTFPKTDVGANAP | 4 |  |  |  |
| potent amylin agonists | superior | CGNLSTCMLGRLTQDLNKFHTFPKTDVGANAP (not fully specified; ends and bridges not checked) [KBP-062, Calcitonin mimetic peptide] | 24 | reduction in food intake | 24 | largest reduction; also recorded: top performance in the screening; also recorded: far greater reduction in food intake |
| potent amylin agonists | superior | CGNLSTCMLGRLSQDLNKFHTFPQTDVGANAP (not fully specified; ends and bridges not checked) [KBP-063, Calcitonin mimetic peptide] | 24 | reduction in food intake | 24 | far greater reduction in food intake |
|  |  | KBP-059: Calcitonin mimetic peptide, Table 1 residues CGNLSTCMLGTYTQDLHKLHTFPKTDVGANAP (not fully specified; ends and bridges not checked) | 4 |  |  |  |
|  |  | KBP-054: Calcitonin mimetic peptide, Table 1 residues CGNLST, positions 7-8 blank, LGRYTQDFHKPQTFPKTDVGANAP | 4 |  |  |  |
| potent amylin agonists | superior | CGNLSTCMLGRLTQDFHKLHTFPKTDVGANAP (not fully specified; ends and bridges not checked) [KBP-058, Calcitonin mimetic peptide] | 24 | reduction in food intake | 24 | far greater reduction in food intake |
